Assay results taken from US11976072B2, “Diacylglycerol kinase modulating compounds” (priority 2021, dated 2024).
pEC50, pIC50: −log10 of the molar value. Like-named read-outs stand apart in the source and are kept apart here.

What was measured:
[1] = system: Jurkat NFκB-luciferase cells; experiment: Jurkat NFκB-Luciferase Assay; type: cell-based; settings: Homo sapiens; for pEC50: Jurkat NFκB-luciferase cells activated with anti-CD3 antibody (OKT3), 2.5 hrs at 37° C., geometric mean, read-out: DGK NFKb Luciferase EC50; for EC50: Jurkat, read-out: DGK NFKb Luciferase EC50 (nM)
Outline: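 Luminescence from One-Glo Ex, read 7 min post-addition, reports NFκB activation in Jurkat luciferase reporter cells. Cells, diluted to 1 million cells/ml in 10% FBS RPMI, were dispensed onto plates holding compound and washed, pre-bound antibody.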

[2] = target: human DGKα (Homo sapiens, UniProt P23743); experiment: DGKα Biochemical Activity Assay (ADP-Glo); settings: recombinant DGKα 1 nM, 100 μM ATP, 18:1 DAG/POPS/octylglucoside micelles, 1 hour at 25° C.; geometric mean; read-out: HTBS DGKa 1X ATP KM IC50;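 also: luminescent detection of ADP produced as DGKα phosphorylates DAG to phosphatidic acid, IC50 from four-parameter nonlinear curve fit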
Sequence of human DGKα (P23743 whole entry): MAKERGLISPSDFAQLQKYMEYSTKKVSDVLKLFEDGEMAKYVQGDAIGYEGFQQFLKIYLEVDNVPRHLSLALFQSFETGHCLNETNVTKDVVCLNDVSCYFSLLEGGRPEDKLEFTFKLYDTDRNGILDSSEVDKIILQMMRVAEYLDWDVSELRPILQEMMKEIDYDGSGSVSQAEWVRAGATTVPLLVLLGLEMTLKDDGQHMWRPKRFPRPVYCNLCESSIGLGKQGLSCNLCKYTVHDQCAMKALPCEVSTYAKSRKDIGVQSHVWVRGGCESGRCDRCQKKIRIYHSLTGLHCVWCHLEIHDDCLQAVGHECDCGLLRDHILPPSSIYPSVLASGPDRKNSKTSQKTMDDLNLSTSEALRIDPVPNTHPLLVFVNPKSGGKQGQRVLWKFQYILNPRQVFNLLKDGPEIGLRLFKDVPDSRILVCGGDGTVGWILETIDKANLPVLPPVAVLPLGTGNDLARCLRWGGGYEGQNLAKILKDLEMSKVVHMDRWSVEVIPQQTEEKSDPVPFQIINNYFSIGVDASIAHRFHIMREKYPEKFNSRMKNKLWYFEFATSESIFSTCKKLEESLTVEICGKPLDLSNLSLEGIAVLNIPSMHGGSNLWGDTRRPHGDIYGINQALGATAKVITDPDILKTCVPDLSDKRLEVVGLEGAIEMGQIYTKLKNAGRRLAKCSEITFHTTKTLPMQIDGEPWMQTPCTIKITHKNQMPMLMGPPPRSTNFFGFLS
Excerpt: Alternatively, the enzymatic activity of human DGKα was monitored in a biochemical assay in the presence or absence of compounds and using micelles containing 18:1 Diacylglycerol (DAG), 16:0-18:1 PS (POPS) and Octylglucoside as substrate. DGKα activity led to conversion of DAG and ATP to Phosphatidic Acid (PA) and ADP. Levels of ADP were monitored by bioluminescence using the ADP-Glo Kinase Assay (Promega) and were indicative of DGKα activity.
Recombinant DGKα (Carna Biosciences) in assay buffer (5 μL in 50 mM MOPS [3-(N-morpholino) propanesulfonic acid], pH 7.2; 0.0025% Triton X-100; 1 mM dithiothreitol; 5 mM MgCl2, 200 μM ATP) was added to the compound-containing plate and was incubated for 15 minutes at 25° C. […] The reaction mixture was incubated at 25° C. for 1 hour. ADP-Glo Reagent (10 μL, 10 mM Mg added) provided by the kit was added to each well and incubated at 25° C. for 40 minutes. Then, 20 μL of Kinase Detection Reagent was added and incubated at 25° C. for 40 minutes. Luciferase activity of each well was measured via luminescence on an Envision plate reader (PerkinElmer).
Least squares curve fittings were performed using a four-parameter variable slope nonlinear regression model. […] IC50 values from multiple experiments were averaged by geometric mean and the standard deviation was calculated.

SMILES	pEC50 [1]	pIC50 [2]	EC50 [1]
CC(F)(F)C1(C#Cc2cccc3c2COCCN3c2nc3nncn3c3ccc(F)c(F)c23)CC1 [Example 201, 6-[2-[1-(1,1-Difluoroethyl)cyclopropyl]ethynyl]-1-(6,7-difluoro-[1,2,4]triazolo[4,3-a]quinazolin-5-yl)-3,5-dihydro-2H-4,1-benzoxazepine]	9.69	8.17	–
OC1(C#Cc2cccc3c2CCCN3c2nc3nncn3c3cccc(F)c23)CCCCC1 [Example 202, 1-((1-(6-Fluoro-[1,2,4]triazolo[4,3-a]quinazolin-5-yl)-1,2,3,4-tetrahydroquinolin-5-yl)ethynyl)cyclohexan-1-ol]	–	8.41	2.04 nM
Fc1ccc2c(c(N3CCOCc4c(C#CC5(C(F)(F)F)CC5)cccc43)nc3nncn32)c1F [Example 203, 1-(6,7-Difluoro-[1,2,4]triazolo[4,3-a]quinazolin-5-yl)-6-[2-[1-(trifluoromethyl)cyclopropyl]ethynyl]-3,5-dihydro-2H-4,1-benzoxazepine]	9.51	8.68	–
CC(C)(C#Cc1cccc2c1COCCN2c1nc2nncn2c2ccc(F)c(F)c12)C(F)(F)F [Example 204, 1-(6,7-Difluoro-[1,2,4]triazolo[4,3-a]quinazolin-5-yl)-6-(4,4,4-trifluoro-3,3-dimethyl-but-1-ynyl)-3,5-dihydro-2H-4,1-benzoxazepine]	9.92	8.42	–
Cc1nnc2nc(N3CCCc4c(C#CC5(O)CCCC5)cccc43)c3c(F)cccc3n12 [Example 205, 1-((1-(6-fluoro-1-methyl-[1,2,4]triazolo[4,3-a]quinazolin-5-yl)-1,2,3,4-tetrahydroquinolin-5-yl)ethynyl)cyclopentan-1-ol]	7.78	7.86	–
Cc1nnc2nc(N3CCCc4c(C#CC5(O)CCCCC5)cccc43)c3c(F)cccc3n12 [Example 206, 1-((1-(6-fluoro-1-methyl-[1,2,4]triazolo[4,3-a]quinazolin-5-yl)-1,2,3,4-tetrahydroquinolin-5-yl)ethynyl)cyclohexan-1-ol]	–	7.87	5.07 nM
Cc1nnc2nc(N3CCOCc4c(C#CC(C)(C)C(F)(F)F)cccc43)c3c(F)c(F)ccc3n12 [Example 207, 1-(6,7-Difluoro-1-methyl-[1,2,4]triazolo[4,3-a]quinazolin-5-yl)-6-(4,4,4-trifluoro-3,3-dimethyl-but-1-ynyl)-3,5-dihydro-2H-4,1-benzoxazepine]	8.39	7.83	–
CC(F)(F)C1(C#Cc2cccc3c2CCCCN3c2nc3nncn3c3ccc(F)c(F)c23)CC1 [Example 208, 5-(6-((1-(1,1-Difluoroethyl)cyclopropyl)ethynyl)-2,3,4,5-tetrahydro-1H-benzo[b]azepin-1-yl)-6,7-difluoro-[1,2,4]triazolo[4,3-a]quinazoline]	9.09	7.73	–
OC1(C#Cc2cccc3c2CCCN3c2nc3nncn3c3ccc(F)c(F)c23)CCCCC1 [Example 209, 1-[2-[1-(6,7-Difluoro-[1,2,4]triazolo[4,3-a]quinazolin-5-yl)-3,4-dihydro-2H-quinolin-5-yl]ethynyl]cyclohexanol]	–	8.66	1.17 nM
Cc1nnc2nc(N3CCOCc4c(C#CC(C)(C)C(F)(F)F)cccc43)c3cc(F)ccc3n12 [Example 210]	9.18	8.23	–
Cc1nnc2nc(N3CCOCc4c(C#Cc5cn[nH]c5)cccc43)c3c(F)cccc3n12 [Example 211, 6-((1H-pyrazol-4-yl)ethynyl)-1-(6-fluoro-1-methyl-[1,2,4]triazolo[4,3-a]quinazolin-5-yl)-1,2,3,5-tetrahydrobenzo[e][1,4]oxazepine]	7.25	8.20	–
Cc1nnc2nc(N3CCCc4c(C#Cc5cn[nH]c5)cccc43)c3c(F)cccc3n12 [Example 212, 5-(5-((1H-pyrazol-4-yl)ethynyl)-3,4-dihydroquinolin-1(2H)-yl)-6-fluoro-1-methyl-[1,2,4]triazolo[4,3-a]quinazoline]	8.01	7.73	–
Cc1nnc2nc(N3CCCc4c(C#Cc5ccc(C#N)nc5)cccc43)c3c(F)cccc3n12 [Example 213, 5-((1-(6-fluoro-1-methyl-[1,2,4]triazolo[4,3-a]quinazolin-5-yl)-1,2,3,4-tetrahydroquinolin-5-yl)ethynyl)picolinonitrile]	8.89	8.00	–
Cc1nnc2nc(N3CCOCc4c(C#Cc5ccnn5C)cccc43)c3c(F)cccc3n12 [Example 214, 1-(6-fluoro-1-methyl-[1,2,4]triazolo[4,3-a]quinazolin-5-yl)-6-((1-methyl-1H-pyrazol-5-yl)ethynyl)-1,2,3,5-tetrahydrobenzo[e][1,4]oxazepine]	8.48	8.04	–
Cc1nnc2nc(N3CCCc4c(C#Cc5ccn[nH]5)cccc43)c3c(F)cccc3n12 [Example 215, 5-(5-((1H-pyrazol-5-yl)ethynyl)-3,4-dihydroquinolin-1(2H)-yl)-6-fluoro-1-methyl-[1,2,4]triazolo[4,3-a]quinazoline]	8.00	7.60	–
Cc1cccc2c1c(N1CCOCc3c(C#CC4(C)CC4)cccc31)nc1nnc(C)n12 [Example 216, 1-(1,6-dimethyl-[1,2,4]triazolo[4,3-a]quinazolin-5-yl)-6-((1-methylcyclopropyl)ethynyl)-1,2,3,5-tetrahydrobenzo[e][1,4]oxazepine]	8.27	7.61	–
Cc1cccc2c1c(N1CCOCc3c(C#CC(C)(C)C#N)cccc31)nc1nnc(C)n12 [Example 217, 4-(1-(1,6-dimethyl-[1,2,4]triazolo[4,3-a]quinazolin-5-yl)-1,2,3,5-tetrahydrobenzo[e][1,4]oxazepin-6-yl)-2,2-dimethylbut-3-ynenitrile]	7.80	7.50	–
Cc1nnc2nc(N3CCOCc4c(C#Cc5cnn(C)c5)cccc43)c3c(F)cccc3n12 [Example 218, 1-(6-fluoro-1-methyl-[1,2,4]triazolo[4,3-a]quinazolin-5-yl)-6-((1-methyl-1H-pyrazol-4-yl)ethynyl)-1,2,3,5-tetrahydrobenzo[e][1,4]oxazepine]	7.47	7.84	–
COc1cncc(C#Cc2cccc3c2CCCN3c2nc3nnc(C)n3c3ccc(F)cc23)c1 [Example 219]	8.89	7.95	–
Cc1nnc2nc(N3CCCc4c(C#Cc5cnc(C(F)(F)F)nc5)cccc43)c3c(F)cccc3n12 [Example 220, 6-fluoro-1-methyl-5-(5-((2-(trifluoromethyl)pyrimidin-5-yl)ethynyl)-3,4-dihydroquinolin-1(2H)-yl)-[1,2,4]triazolo[4,3-a]quinazoline]	9.46	7.66	–
CCCCCc1cc(C2(C#Cc3cccc4c3CCCN4c3nc4nnc(C)n4c4cccc(F)c34)CC2)no1 [Example 221, 3-(1-((1-(6-fluoro-1-methyl-[1,2,4]triazolo[4,3-a]quinazolin-5-yl)-1,2,3,4-tetrahydroquinolin-5-yl)ethynyl)cyclopropyl)-5-pentylisoxazole]	9.19	6.92	–
COc1ccc(C#Cc2cccc3c2COCCN3c2nc3nnc(C)n3c3cccc(F)c23)cn1 [Example 222, 1-(6-fluoro-1-methyl-[1,2,4]triazolo[4,3-a]quinazolin-5-yl)-6-((6-methoxypyridin-3-yl)ethynyl)-1,2,3,5-tetrahydrobenzo[e][1,4]oxazepine]	9.14	8.20	–
Cc1nnc2nc(N3CCCc4c(C#Cc5ccnn5C)cccc43)c3cc(F)ccc3n12 [Example 223, 7-fluoro-1-methyl-5-[5-[2-(2-methylpyrazol-3-yl)ethynyl]-3,4-dihydro-2H-quinolin-1-yl]-[1,2,4]triazolo[4,3-a]quinazoline]	8.04	7.39	–
Cc1nnc2nc(N3CCCc4c(C#Cc5ccn[nH]5)cccc43)c3cc(F)ccc3n12 [Example 224, 7-fluoro-1-methyl-5-[5-[2-(1H-pyrazol-5-yl)ethynyl]-3,4-dihydro-2H-quinolin-1-yl]-[1,2,4]triazolo[4,3-a]quinazoline]	8.08	7.82	–
Cc1nnc2nc(N3CCCc4c(C#Cc5cn[nH]c5)cccc43)c3cc(F)ccc3n12 [Example 225, 7-fluoro-1-methyl-5-[5-[2-(1H-pyrazol-4-yl)ethynyl]-3,4-dihydro-2H-quinolin-1-yl]-[1,2,4]triazolo[4,3-a]quinazoline]	8.05	8.13	–
Cc1nnc2nc(N3CCCc4c(C#Cc5cnn(C)c5)cccc43)c3c(F)c(F)ccc3n12 [Example 226, 6,7-difluoro-1-methyl-5-[5-[2-(1-methylpyrazol-4-yl)ethynyl]-3,4-dihydro-2H-quinolin-1-yl]-[1,2,4]triazolo[4,3-a]quinazoline]	8.41	8.47	–
Cc1nnc2nc(N(CC(F)F)c3cc(F)cc(C#Cc4cnn(C)c4)c3)c3c(F)c(F)ccc3n12 [Example 227, N-(2,2-difluoroethyl)-6,7-difluoro-N-[3-fluoro-5-[2-(1-methylpyrazol-4-yl)ethynyl]phenyl]-1-methyl-[1,2,4]triazolo[4,3-a]quinazolin-5-amine]	8.01	7.53	–
COc1ccc(C#Cc2cccc3c2CCCN3c2nc3nnc(C)n3c3ccc(F)cc23)cn1 [Example 228, 7-fluoro-5-[5-[2-(6-methoxy-3-pyridyl)ethynyl]-3,4-dihydro-2H-quinolin-1-yl]-1-methyl-[1,2,4]triazolo[4,3-a]quinazoline]	9.50	7.75	–
Cc1nnc2nc(N3CCCc4c(C#Cc5ccnc(C#N)c5)cccc43)c3cc(F)ccc3n12 [Example 229, 4-[2-[1-(7-fluoro-1-methyl-[1,2,4]triazolo[4,3-a]quinazolin-5-yl)-3,4-dihydro-2H-quinolin-5-yl]ethynyl]pyridine-2-carbonitrile]	8.98	7.78	–
